Experimental data published in ChEMBL document CHEMBL1157827, “The synthesis and biological evaluation of quinolyl-piperazinyl piperidines as potent serotonin 5-HT1A antagonists” (J Med Chem, 2010).
Calls of active or inactive are those of the source. No cut-off for these calls is given here.

Assays:
[1] = target: T1, 5-hydroxytryptamine receptor 1A (Homo sapiens, UniProt P08908)
T1 sequence (P08908 whole entry): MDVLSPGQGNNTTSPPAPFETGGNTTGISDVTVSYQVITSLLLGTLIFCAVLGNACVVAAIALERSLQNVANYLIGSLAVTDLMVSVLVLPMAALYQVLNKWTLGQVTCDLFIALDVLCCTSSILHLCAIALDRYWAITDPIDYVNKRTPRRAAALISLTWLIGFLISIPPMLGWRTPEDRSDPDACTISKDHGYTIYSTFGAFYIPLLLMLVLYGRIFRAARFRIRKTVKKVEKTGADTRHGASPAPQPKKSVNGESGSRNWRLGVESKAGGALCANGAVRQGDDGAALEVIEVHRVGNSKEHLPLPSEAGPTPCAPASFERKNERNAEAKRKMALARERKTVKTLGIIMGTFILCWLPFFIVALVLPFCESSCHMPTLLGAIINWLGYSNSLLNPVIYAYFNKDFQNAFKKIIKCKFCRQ

in vitro [2] = settings: rat, liver microsomes
Description: Half life in rat liver microsomes at 1 uM after 20 mins

in vitro [3] = settings: human, liver microsomes
Description: Half life in human liver microsomes at 1 uM after 20 mins

[4] = target: T1, 5-hydroxytryptamine receptor 1A; assay: biochemical
Description: (§1) Displacement of [3H]8-OH-DPAT from human 5HT1A receptor expressed in CHO cells

Rattus norvegicus [5] = assay: Cognitive enhancing effect in po dosed Long-Evans rat assessed as reversal of 48 hrs delay-induced cognitive deficit at 0.1 mg/kg, po measured after 1 hr by novel object recognition test in presence of 0.5 mg/kg acetylcholinesterase inhibitor donepazil; assay type: functional, organism-based
Rattus norvegicus [6] = assay: Cognitive enhancing effect in Long-Evans rat assessed as decrease in mean escape latency at 3 to 10 mg/kg, po by atlantis water maze test; assay type: functional, organism-based
Rattus norvegicus [7] = assay: Cognitive enhancing effect in Long-Evans rat assessed as increase in dwell time within trigger zone during acquisition training at 3 mg/kg, po by atlantis water maze test; assay type: functional, organism-based; design: dose 3 mg/kg
Rattus norvegicus [8] = assay: Cognitive enhancing effect in Long-Evans rat assessed as increase in dwell time within trigger zone during acquisition training at 10 mg/kg, po by atlantis water maze test; assay type: functional, organism-based; design: dose 10 mg/kg
Rattus norvegicus [9] = assay: Cognitive enhancing effect in Long-Evans rat assessed as effect on swim speed during acquisition training at 3 to 10 mg/kg, po by atlantis water maze test; assay type: functional, organism-based
Mus musculus = assay: Cognitive enhancing effect in po dosed transgenic 2576 mouse overexpressing human APP K670N/M671L double mutant assessed as minimal effective dose for enhancement of contextual memory measured after 1 hr by contextual fear conditioning assay; assay type: functional; settings: read-out: MED
Rattus norvegicus [10] = assay: Increase in fluoxetine-induced increase in serotonin level in Sprague-Dawley rat frontal cortex at 10 mg/kg, po administered 30 mins before fluoxetine challenge measured after 20 mins by microdialysis assay relative to basal level; assay type: functional
Rattus norvegicus [11] = assay: Effect on obsessive compulsive behavior in Sprague-Dawley rat assessed as inhibition of polydipsia stimulated by food intake of a schedule of every 2 minutes for 2 hrs at 5.6 mg/kg, ip after 30 mins; assay type: functional, organism-based; design: dose 5.6 mg/kg
Rattus norvegicus [12] = assay: Effect on obsessive compulsive behavior in Sprague-Dawley rat assessed as inhibition of polydipsia stimulated by food intake of a schedule of every 2 minutes for 2 hrs at 10 mg/kg, po after 30 mins; assay type: functional, organism-based; design: dose 10 mg/kg
Rattus norvegicus [13] = assay: Effect on obsessive compulsive behavior in po dosed Sprague-Dawley rat assessed as enhancement of fluoxetine-induced inhibition of polydipsia stimulated by food intake of a schedule of every 2 minutes for 2 hrs administered 30 mins before fluoxetine challenge measured after 30 mins; assay type: functional, organism-based
Rattus norvegicus [14] = assay: Enhancement of fluoxetine-induced inhibition of polydipsia stimulated by food intake of a schedule of every 2 minutes for 2 hrs in Sprague-Dawley rat assessed as minimal effective dose administered 30 mins before fluoxetine challenge measured after 30 mins; assay type: functional; settings: read-out: MED
Rattus norvegicus [15] = assay: Antidepressant activity in Sprague-Dawley rat assessed as inhibition of olfactory bulbectomy-induced hyperlocomotor activity at 5.6 mg/kg, ip QD fro 7 days measured after 14 days post-surgery; assay type: functional, organism-based; design: dose 5.6 mg/kg
Rattus norvegicus [16] = assay: Enhancement of fluoxetine-induced inhibition of olfactory bulbectomy-mediated hyperlocomotor activity in Sprague-Dawley rat at 10 mg/kg, po coadministered with fluoxetine QD for 7 days measured after 14 days post-surgery; assay type: functional, organism-based; design: dose 10 mg/kg
Rattus norvegicus [17] = assay: Induction of sexual dysfunction in Sprague-Dawley rat assessed as decrease in noncontact penile erection at 10 mg/kg, ip QD for 14 days measured after day 14; assay type: organism-based; design: dose 10 mg/kg, route intraperitoneal; scale not given: the % may be the effect or the level left; settings: in vivo, 336 h
Rattus norvegicus [18] = assay: Inhibition of fluoxetine-induced decrease in noncontact penile erection in Sprague-Dawley rat at 10 mg/kg, po coadministered with fluoxetine QD for 14 days measured after day 14; assay type: functional, organism-based; design: dose 10 mg/kg
Rattus norvegicus [19] = assay: Inhibition of fluoxetine-induced decrease in noncontact penile erection in Sprague-Dawley rat at 10 mg/kg, po coadministered with fluoxetine; assay type: functional, organism-based; design: dose 10 mg/kg
Rattus norvegicus [20] = assay: Effect of noncontact penile erection in Sprague-Dawley rat at 10 mg/kg, po QD for 14 days measured after day 14; assay type: functional, organism-based; design: dose 10 mg/kg
Rattus norvegicus [21] = assay: Effect of noncontact penile erection in Sprague-Dawley rat at 10 mg/kg, po; assay type: functional, organism-based; design: dose 10 mg/kg
[22] = Volume of distribution at steady state in Sprague-Dawley rat at 1 mg/kg, iv administered as single dose by LC/MS/MS analysis; assay type: ADME, organism-based; design: dose 1 mg/kg, route intravenous; settings: in vivo, read-out: Vdss
[23] = Cmax in Sprague-Dawley rat at 3 mg/kg, po administered as single dose by LC/MS/MS analysis; assay type: ADME, organism-based; design: dose 3 mg/kg, route oral; settings: in vivo
[24] = Tmax in Sprague-Dawley rat at 3 mg/kg, po administered as single dose by LC/MS/MS analysis; assay type: ADME, organism-based; design: dose 3 mg/kg, route oral; settings: in vivo
[25] = Half life in Sprague-Dawley rat at 3 mg/kg, po administered as single dose by LC/MS/MS analysis; assay type: ADME, organism-based; design: dose 3 mg/kg, route oral; settings: in vivo
Rattus norvegicus [26] = assay: AUC in Sprague-Dawley rat at 3 mg/kg, po administered as single dose by LC/MS/MS analysis; assay type: ADME, organism-based, Plasma; design: dose 3 mg/kg, route oral; settings: in vivo
Rattus norvegicus [27] = assay: Oral bioavailability in Sprague-Dawley rat at 3 mg/kg administered as single dose by LC/MS/MS analysis; assay type: ADME, organism-based; settings: in vivo
[28] = Ratio of drug level in brain to plasma in Sprague-Dawley rat at 3 mg/kg, po administered as single dose; assay type: ADME, organism-based; design: dose 3 mg/kg, route oral; settings: read-out: BPR
Rattus norvegicus [29] = assay: Effect on serotonin release in Sprague-Dawley rat cortex at 10 mg/kg, po after 40 mins microdialysis assay; assay type: functional, organism-based; design: dose 10 mg/kg
Rattus norvegicus [30] = assay: Inhibition of 8-OH-DPAT-induced decrease in extracellular serotonin level Sprague-Dawley rat cortex at 10 mg/kg, po administered 30 mins before 8-OH-DPAT challenge; assay type: functional, organism-based; design: dose 10 mg/kg
Rattus norvegicus [31] = assay: Increase in acetylcholine level in Sprague-Dawley rat dorsal hippocampus at 10 mg/kg, po after 40 to 200 mins microdialysis assay; assay type: functional, organism-based; design: dose 10 mg/kg
Rattus norvegicus [32] = assay: Cognitive enhancing effect in po dosed Long-Evans rat assessed as minimal effective dose for reversal of 48 hrs delay-induced cognitive deficit measured after 1 hr by novel object recognition test; assay type: functional; settings: read-out: MED
Rattus norvegicus [33] = assay: In vivo receptor occupancy of 5HT1A receptor Long-Evans rat frontal cortex at 0.1 to 10 mg/kg, po by [3H]WAY100635 displacement assay; assay type: functional; settings: dose mg/kg 0.1-10
Rattus norvegicus [34] = assay: In vivo receptor occupancy of 5HT1A receptor Long-Evans rat […] hippocampus at 0.1 to 10 mg/kg, po by [3H]WAY100635 displacement assay; assay type: functional; settings: dose mg/kg 0.1-10
Rattus norvegicus [35] = assay: Cognitive enhancing effect in po dosed Long-Evans rat assessed as minimal effective dose for reversal of MK-801-induced memory deficit administered 30 mins prior to MK801 challenge measured after 1 hr by novel object recognition test; assay type: functional; settings: read-out: MED
Rattus norvegicus [36] = assay: Cognitive enhancing effect in po dosed Long-Evans rat assessed as minimal effective dose for reversal of scopolamine-induced memory deficit administered 30 mins prior to MK801 challenge measured after 1 hr by novel object recognition test; assay type: functional; settings: read-out: MED
[37] = target: T1, 5-hydroxytryptamine receptor 1A; settings: cho
Description: as §1

COc1cc(N2CCN(C3CCN(c4c(F)ccc5cccnc45)CC3)CC2)c2ncccc2c1 gave an IC50 [1] of 331 nM, a half-life at 20 min, 1 µM (in vitro [2]) of 3 min and a half-life at 20 min, 1 µM (in vitro [3]) of 3 min. For the same molecule, the Ki [4] was 276 nM.

With COc1cc(N2CCN(C3CCN(c4cc(F)cc5cccnc45)CC3)CC2)c2ncccc2c1 the IC50 [1] was 46.5 nM, the half-life at 20 min, 1 µM (in vitro [2]) was 2 min and the half-life at 20 min, 1 µM (in vitro [3]) was 4 min. The Ki [4] was 3.4 nM.

Molecule COc1cc(N2CCN(C3CCN(c4cccc5ccc(C(F)(F)F)nc45)CC3)CC2)c2ncccc2c1 has an IC50 [1] of 23 nM, a half-life at 20 min, 1 µM (in vitro [2]) of 2 min and a half-life at 20 min, 1 µM (in vitro [3]) of 3 min. For the same molecule, the Ki [4] was 1.8 nM.

COc1cc(N2CCN(C3CCN(c4ccc(F)c5cc(F)cnc45)CC3)CC2)c2ncccc2c1 gave an IC50 [1] of 20 nM, a half-life at 20 min, 1 µM (in vitro [2]) of under 1 min and a half-life at 20 min, 1 µM (in vitro [3]) of 5 min. For the same molecule, the Ki [4] was 0.47 nM.

For COc1cc(N2CCN(C3CCN(c4ccc(F)c5cccnc45)CC3)CC2)c2ncccc2c1, the Activity (Rattus norvegicus [5]) was “Active”, the Activity (Rattus norvegicus [6]) was “Active” and the Activity (Rattus norvegicus [7]) was “inactive”. The Activity (Rattus norvegicus [8]) was “Active”, the Activity (Rattus norvegicus [9]) was “inactive” and the minimal effective dose (Mus musculus) was 0.3 mg/kg. The Activity (Rattus norvegicus [10]) was 120%, the Activity (Rattus norvegicus [11]) was “inactive” and the Activity (Rattus norvegicus [12]) was “inactive”. For the same molecule, the Activity (Rattus norvegicus [13]) was “Dose-dependent effect”, the minimal effective dose (Rattus norvegicus [14]) was 3 mg/kg and the Activity (Rattus norvegicus [15]) was “inactive”. For the same molecule, the Activity (Rattus norvegicus [16]) was “Active”, the Activity (Rattus norvegicus [17]) was 54% and the Activity (Rattus norvegicus [18]) was “Active”. The Activity (Rattus norvegicus [19]) was “Active”, the Activity (Rattus norvegicus [20]) was “inactive” and the Activity (Rattus norvegicus [21]) was “inactive”. For the same molecule, the Vd [22] was 2.6 L/kg, the Cmax [23] was 247 ng/mL and the Tmax [24] was 48 min. It also gave a half-life [25] of 66 min, an AUC (Rattus norvegicus [26]) of 472 ng·h/mL and an F (Rattus norvegicus [27]) of 33%. For the same molecule, the Kp [28] was 1.3, the Activity (Rattus norvegicus [29]) was “inactive” and the Activity (Rattus norvegicus [30]) was “Active”. The Activity (Rattus norvegicus [31]) was “Active”, the minimal effective dose (Rattus norvegicus [32]) was 0.3 mg/kg and the Activity (Rattus norvegicus [33]) was 20%. For the same molecule, the Activity (Rattus norvegicus [34]) was 20%, the minimal effective dose (Rattus norvegicus [35]) was 1 mg/kg and the minimal effective dose (Rattus norvegicus [36]) was 0.3 mg/kg. It also gave an IC50 [1] of 2.7 nM, a Ki [37] of 0.4 nM and a half-life at 20 min, 1 µM (in vitro [2]) of 2 min. The half-life at 20 min, 1 µM (in vitro [3]) was 6 min.

COc1cc(N2CCN(C3CCN(c4ccc(F)c5c(C)cc(C)nc45)CC3)CC2)c2ncccc2c1 gave an IC50 [1] of 2.8 nM, a half-life at 20 min, 1 µM (in vitro [2]) of 3 min and a half-life at 20 min, 1 µM (in vitro [3]) of 3 min. The Ki [4] was 177 nM.

COc1cc(N2CCN(C3CCN(c4cccc5c(C)cc(C)nc45)CC3)CC2)c2ncccc2c1 showed an IC50 [1] of 4.8 nM, a half-life at 20 min, 1 µM (in vitro [2]) of 4 min and a half-life at 20 min, 1 µM (in vitro [3]) of under 1 min. For the same molecule, the Ki [4] was 0.63 nM.

With COc1cc(N2CCN(C3CCN(c4cccc5cc(C)cnc45)CC3)CC2)c2ncccc2c1 the IC50 [1] was 5.9 nM, the half-life at 20 min, 1 µM (in vitro [2]) was 2 min and the half-life at 20 min, 1 µM (in vitro [3]) was 2 min. It also gave a Ki [4] of 0.46 nM.

In the case of COc1cc(N2CCN(C3CCN(c4cc(Br)cc5cccnc45)CC3)CC2)c2ncccc2c1, the IC50 [1] is reported as 10 nM, the half-life at 20 min, 1 µM (in vitro [2]) is reported as 2 min and the half-life at 20 min, 1 µM (in vitro [3]) is reported as 2 min. It also gave a Ki [4] of 0.61 nM.
